The values below come from patent publication US6514956B1, “Steroids, their preparation, pharmaceutical compositions thereof and uses of the compounds” (Shanghai Zhongxi Pharmaceutical Co., Ltd., priority 1999, dated 2003).

The conditions of data set [1]: compared with mifepristone; reported in Human Reproduction 1994; cited from earlier work.
In data set [2] the test system is Human mammary cancer cells MCF-7. Briefly: MTT test of killing tumor cells, MCF-7. It is filed as cell-based. To be noted: 4-6 days incubation. On the procedure:
(§1) Human mammary cancer cells (MCF-7, T47D, commercially available) were prepared as 1×10^4/ml cell suspension in RPMI 1640 medium containing 10% calf serum and used to inoculate a 96-well plate at 100 μl/well. The plate was incubated for 24 hours in an incubator in 5% CO2 at 37° C. Two experimental groups each receiving compound of formula (VI) or Mifepristone (commercially available) (triplicate well/group each receiving 100 μl RPMI 1640 medium containing various concentrations of drug) and a control group (each well receiving RPMI medium containing equal volume of solvent) were incubated for 4-6 days in an incubator in 5% CO2 at 37° C. The cultural supernatant was discarded and 0.04% 100 μl MTT prepared with RPMI 1640 was added into each well. Incubation was carried out at 37° C. for 4 hours. The supernatant was discarded and 150 μl dimethyl sulfoxide was added into each well to dissolve Fomazan particles. After being shaked slightly, OD value was measured using a Model 550 Enzyme Labelling Equipment at a wavelength of 540 nm. The rate of inhibition of cells was graphed against the various concentrations of the drug to produce a dosage response curve from which 50% inhibiting concentration IC50 was derived.
A general note: Formazan colour is commonly taken as a measure of viable cells.

Data set [3] concerns Human mammary cancer cells T47D. Description: MTT test of killing tumor cells, T47D. To be noted: 4-6 days incubation. It is filed as cell-based. On the procedure: as §1
The test system of data set [4] is MNU-induced rat mammary cancer. Description: Inhibition of MNU-induced rat mammary cancer. To be noted: 30 days. It is filed as in vivo, Sprague-Dawley rats. On the procedure:
Sprague-Dawley rats which are 5-7 weeks old and weighing 90-120 g were treated with an amount of carcinogenic chemical (MNU, commercially available) to induce rat mammary cancer and were divided into a group with cancer-induction alone, a group with mifepristone and two treatment groups with the compound of formula (VI). Each group except for the group with cancer-induction alone was endogastrically administrated with corresponding dose one time per day. After 30 days, the animals were sacrificed by decapitation. Indices such as body weight and tumor weight of each group of the animals were compared. The mean value of the groups was calculated and the rate of tumor growth inhibition derived. Rate of tumor inhibition %=(mean value of the group with cancer-induction alone−mean value of the treatment group)/mean value of the group with cancer-induction alone×100%

Data set [5] has as its system pregnant rats, gravidity d7-9. Briefly: Effect in stopping early pregnancy in rats. It is filed as in vivo, Sprague-Dawley rats. The following applies: for early pregnancy-stopping effect: rats of gravidity d7-9. As for the experimental part: Both sexes of Sprague-Dawley rats were placed into a cage and were allowed to copulate. […] Pregnant rats were randomly divided into 11 groups of 10. The control group was administrated with 0.5% CMC-Na solution. 6 Groups were administered with the compound of formula (VI) at doses of 2.0, 1.6, 1.28, 1.02, 0.82 and 0.66 mg/kg respecticely. 4 Groups were administered with Mifepristone at doses of 3.5, 2.45, 1.72 and 1.2 mg/kg respectively. The groups were administered endogastrically once a day (dose 2 ml/kg) for 3 consecutive days starting from gradivity d7. Animals in which ecolporrhagia was not detected and no signs of embryo implantation were found on dissection examination were considered as not pregnant and were not counted. The animals were sacrificed and laparotomized on gradivity d14 and the numbers of living embryos, dead embryos, implantation sites and yellow bodies in the uterus were counted. The number of the pregnant animals were counted and compared with that of the control group. ED50 of the two test drugs and its credibility interval was calculated with Bliss's method.

Data set [6] concerns pregnant rats, gravidity d1-4. Briefly: Anti-implantation effect in rat. It is filed as in vivo, Sprague-Dawley rats. To be noted: endogastric once a day for 4 days from gravidity d1, Bliss's method. As for the experimental part: Both sexes of Sprague-Dawley rats were placed into a cage and were allowed to copulate. […] Pregnant rats were randomly divided into 10 groups of 10. The control group was administered with 0.5% CMC-Na solution. 5 Groups were administered with the compound of formula (VI) and 4 groups were administered with Mifepristone. The groups were administered endogastrically once a day for 4 consecutive days starting from gradivity d1. The groups of animals were laparotomized on gradivity d14 and their uterus examined. The number of pregnant animals was counted. ED50 of the two drugs was calculated with Bliss's method.

Data set [7] concerns the target T1, progesterone receptor in rabbit endometrium (Oryctolagus cuniculus, UniProt P06186).
T1 construct: progesterone receptor in rabbit endometrium; host or cells: rabbit endometrium (tissue)
T1 sequence (P06186 1-930): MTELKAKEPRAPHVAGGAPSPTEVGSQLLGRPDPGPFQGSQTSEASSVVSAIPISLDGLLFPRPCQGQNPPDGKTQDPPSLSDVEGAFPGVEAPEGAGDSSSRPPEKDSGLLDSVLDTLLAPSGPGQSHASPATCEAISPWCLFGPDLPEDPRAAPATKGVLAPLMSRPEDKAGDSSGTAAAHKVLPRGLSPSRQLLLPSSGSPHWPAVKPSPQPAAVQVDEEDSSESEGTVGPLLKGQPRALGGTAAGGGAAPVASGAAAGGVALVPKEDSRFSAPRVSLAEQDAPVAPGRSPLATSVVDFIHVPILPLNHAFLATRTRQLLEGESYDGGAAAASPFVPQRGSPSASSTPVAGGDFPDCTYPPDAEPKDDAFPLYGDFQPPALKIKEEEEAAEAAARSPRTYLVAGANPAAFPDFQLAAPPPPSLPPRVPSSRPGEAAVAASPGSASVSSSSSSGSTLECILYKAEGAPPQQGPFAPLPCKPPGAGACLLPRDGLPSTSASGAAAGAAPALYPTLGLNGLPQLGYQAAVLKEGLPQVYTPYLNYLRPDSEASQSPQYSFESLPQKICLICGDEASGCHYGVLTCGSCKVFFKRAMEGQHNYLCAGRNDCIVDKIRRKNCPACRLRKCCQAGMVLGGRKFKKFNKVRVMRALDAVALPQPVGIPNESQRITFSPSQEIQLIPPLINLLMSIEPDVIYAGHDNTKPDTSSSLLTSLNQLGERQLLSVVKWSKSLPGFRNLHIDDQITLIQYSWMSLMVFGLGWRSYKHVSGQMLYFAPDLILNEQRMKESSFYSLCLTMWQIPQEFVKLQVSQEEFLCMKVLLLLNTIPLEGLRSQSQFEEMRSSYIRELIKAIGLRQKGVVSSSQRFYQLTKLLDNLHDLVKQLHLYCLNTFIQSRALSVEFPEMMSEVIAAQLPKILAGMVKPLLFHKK
To be noted: cited from earlier work.

For data set [8] the following is noted: reported in European Journal of Cancer 1999; cited from earlier work.

As a reminder, the IC50 is the point on the concentration scale where inhibition reaches its midpoint. A higher IC50 goes with a need for much substance. One may read the ED50 as the dose that gives a 50% effect, or the effect in half of the subjects. A high value points to weaker potency.

On to `CN(C)c1ccc([C@H]2C[C@@]3(C)[C@@H](CC[C@@]3(O)/C=C\CO)[C@@H]3CCC4=CC(=O)CCC4=C32)cc1` [Lilopristone, 11β-[4-(N,N-dimethylamino)phenyl]-17α-[3-hydroxy-1(Z)-propenyl]-17β-hydroxy-4,9-estradiene-3-one], for which the “clinical effect in stopping early pregnancy” value in data set [1] was “only equivalent to that of mifepristone”.
In the case of `CC#C[C@]1(O)CC[C@H]2[C@@H]3CCC4=CC(=O)CCC4=C3[C@@H](c3ccc(N(C)C)cc3)C[C@@]21C` [Mifepristone, 11β-[4-(N,N-dimethylamino)phenyl]-17α-(1-propinyl)-17β-hydroxy-4,9-estradiene-3-one], the IC50 stood at 10.8 ± 8.1 µM in data set [2] (Homo sapiens, MCF7, MCF-7 cells) and 11 ± 9.03 µM in data set [3] (Homo sapiens). Also, the “Inhibition (%) of tumor growth” value in data set [4] (40 mg/kg endogastrically once per day) worked out at 72.1%. In addition, the early pregnancy-stopping effect entry in data set [5] (3.5 mg/kg) was “complete early pregnancy-stopping effect”. Besides, the ED50 in data set [5] (Rattus norvegicus, 72 h, rats, endogastric once a day for 3 days from gravidity d7, Bliss's method, credibility interval in brackets) was 2.12 ± 0.447 mg/kg; in data set [6] (Rattus norvegicus, 96 h) it was 6.69 ± 1.55 mg/kg. Besides, in data set [7], the “affinity with progesterone receptor compared with progesterone” value is “five-fold higher than that of progesterone”.
With `CN(C)c1ccc([C@H]2C[C@]3(C)[C@@H](CC[C@]3(O)CCCO)[C@@H]3CCC4=CC(=O)CCC4=C32)cc1` [Onapristone, 11β-[4-(N,N-dimethylamino)phenyl]-17α-hydroxy-17β-(3-hydroxypropyl)-13α-4,9-estradiene-3-one], the “toxicity to human liver” value in data set [8] is “had toxicity to human liver”.
As to `CC#CC1(O)CCC2C3CCC4=CC(=O)CCC4=C3C(c3ccc(N(C)C4CCCCC4)cc3)CC21C` (stereo not drawn) [compound of formula (VI), 11β-[4-(N-methyl-N-cyclohexylamino)phenyl]-17α-(1-propinyl)-17β-hydroxy-4,9-estradiene-3-one], the IC50 in data set [2] (MCF-7 cells) was determined as 5.5 ± 0.72 µM; in data set [3] it was 6.4 ± 3.15 µM. For the same compound, the results for the “Inhibition (%) of tumor growth” value in data set [4] (10 mg/kg endogastrically once per day) and in data set [4] (20 mg/kg endogastrically once per day) were 50.4% and 89.3%, respectively. Besides, in data set [5] (2 mg/kg/day), the early pregnancy-stopping effect entry is “complete early pregnancy-stopping effect”. Moreover, the “ED50, early pregnancy-stopping effect” value in data set [5] (rats, endogastric once a day for 3 days from gravidity d7, Bliss's method, credibility interval in brackets) stood at 1.1439 ± 0.1590 mg/kg. For the same compound, the “anti-implantation ED50” value in data set [6] was 2.3409 ± 0.6191 mg/kg.
